From US9523100B2, “Pesticidal compositions and related methods” (DOW AGROSCIENCES LLC, priority 2013, dated 2016)

Columns and labels:
[1] = test system: Sweetpotato Whitefly-Crawler (WF) (Bemisia tabaci) (BEMITA); test: Insecticidal test for Sweetpotato Whitefly-Crawler (WF) in foliar spray assay on cotton plants; type: in vivo; details: 216 h, 200 ppm foliar spray on cotton plants, graded after 9 days, Abbott corrected % control, read-out: WF 200 ppm, % Control (or Mortality) rating
Description: Insecticidal Test for Sweetpotato Whitefly-Crawler (WF) (Bemisia tabaci) (BEMITA) in Foliar Spray Assay
The sweetpotato whitefly (Bemisia tabaci) has been reported as a serious pest of cultivated crops world-wide. It has an extremely wide host range attacking more than 500 species of plants from 63 plant families. Weeds often serve as alternate hosts of crop pests. Direct feeding damage is caused by the piercing and sucking sap from the foliage of plants. This feeding causes weakening and early wilting of the plant and reduces the plant growth rate and yield Indirect damage results by the accumulation of honeydew produced by the whiteflies. Honeydew serves as a substrate for the growth of black sooty mold on leaves and fruit reducing photosynthesis and lessens the market value of the plant or yield. […] The sweetpotato whitefly is considered the most common and important whitefly vector of plant viruses worldwide.
Cotton plants (Gossypium hirsutum) grown in 3-inch pots, with 1 small (4-5 cm) true leaves, were used as test substrate. The plants were infested with 200-400 whitefly eggs 4-5 days prior to chemical application. Four pots with individual plants were used for each treatment. Test compounds (2 mg) were dissolved in 1 mL of acetone solvent, forming stock solutions of 2000 ppm test compound. The stock solutions were diluted 10× with 0.025% Tween 20 in water (diluents) to obtain the solution at 200 ppm test compound. A hand-held aspirator-type sprayer was used for spraying a solution to both sides of cotton leaves until runoff. Reference plants (solvent check) were sprayed with the diluent only containing 10% by volume of acetone solvent. Treated plants were held in a holding room for 9 days at approximately 25° C. and ambient relative humidity (RH) prior to grading. Evaluation was conducted by counting the number of live 3-4 nymph stage per plant under a microscope. Percent control was measured by using Abbott's correction formula (W. S. Abbott, “A Method of Computing the Effectiveness of an Insecticide” J. Econ. Entomol. 18 (1925), pp. 265-267) as follows.
Biological Data for Green Peach Aphid (GPA) (MYZUPE) and Sweetpotato Whitefly-Crawler (WF) (BEMITA)” (see table section). Corrected % Control=100*(X−Y)/X
X=No. of live nymphs on solvent check plants and
Y=No. of live nymphs on treated plants
(§1) The mortality efficiency of the pesticidal compounds against GPA and WF insects was determined after treatment.

[2] = test system: Green Peach Aphid (GPA) (Myzus persicae) (MYZUPE); test: Bioassay for Green Peach Aphid (GPA), foliar spray on cabbage seedlings; type: in vivo; details: 72 h, 200 ppm foliar spray on cabbage seedlings, graded after three days, Abbott corrected % control, read-out: GPA 200 ppm, % Control (or Mortality) rating
Description: Bioassay for Green Peach Aphid (GPA) (Myzus persicae) (MYZUPE)
The green peach aphid (Myzus persicae) is the most significant aphid pest of peach trees, causing decreased growth, shriveling of the leaves, and the death of various tissues. It is also hazardous because it acts as a vector for the transport of plant viruses, such as potato virus Y and potato leafroll virus to members of the nightshade/potato family Solanaceae, and various mosaic viruses to many other food crops. GPA attacks such plants as broccoli, burdock, cabbage, carrot, cauliflower, daikon, eggplant, green beans, lettuce, macadamia, papaya, peppers, sweet potatoes, tomatoes, watercress, and zucchini, among other plants GPA also attacks many ornamental crops such as carnation, chrysanthemum, flowering white cabbage, poinsettia, and roses. GPA has developed resistance to many pesticides.
Cabbage seedlings grown in 3-inch pots, with 2-3 small (3-5 cm) true leaves, were used as test substrate. The seedlings were infested with 20-50 GPA (wingless adult and nymph stages) one day prior to chemical application. Four pots with individual seedlings were used for each treatment. Test compounds (2 mg) were dissolved in 2 mL of acetone/methanol (1:1) solvent, forming stock solutions of 1000 ppm test compound. The stock solutions were diluted 5× with 0.025% Tween 20 in water to obtain the solution at 200 ppm test compound. A hand-held aspirator-type sprayer was used for spraying a solution to both sides of […] leaves until runoff. Reference plants (solvent check) were sprayed with the diluent only containing 20% by volume of acetone/methanol (1:1) solvent. Treated plants were held in a holding room for three days at approximately 25° C. and ambient relative humidity (RH) prior to grading. Evaluation was conducted by counting the number of live aphids per plant under a microscope. Percent control was measured by using Abbott's correction formula (W. S. Abbott, “A Method of Computing the Effectiveness of an Insecticide” J. Econ. Entomol. 18 (1925), pp. 265-267) as follows. Corrected % Control=100*(X−Y)/X
X=No. of live aphids on solvent check plants and
Y=No. of live aphids on treated plants
Biological Data for Green Peach Aphid (GPA) (MYZUPE) and Sweetpotato Whitefly-Crawler (WF) (BEMITA)” (see table section).
as §1

Structure (SMILES)	mortality at 200 ppm [1] [%]	mortality at 200 ppm [2] [%]
CCN(C(=O)C1CN(C(=O)OC(C)(C)C)C1)c1cn(-c2cccnc2)nc1Cl [Compound F26]	0 to 80	80 to 100
CCN(C(=O)CC/C(C)=N/OCCCC(F)(F)F)c1cn(-c2cccnc2)nc1Cl [FA19, (E/Z)-N-(3-Chloro-1-(pyridin-3-yl)-1H-pyrazol-4-yl)-N-ethyl-4-((4,4,4-trifluorobutoxy)imino) pentanamide]	80 to 100	0 to 80
CCN(C(=O)CCN(CC(F)F)C(=O)CC1CC1)c1cn(-c2cccnc2)nc1Cl [Compound F125, N-(3-Chloro-1-(pyridin-3-yl)-1H-pyrazol-4-yl)-3-(2-cyclopropyl-N-(2,2-difluoroethyl)acetamido)-N-ethylpropanamide]	80 to 100	80 to 100
CCN(C(=O)CN1CCOC1=O)c1cn(-c2cccnc2)nc1Cl [Compound F48, N-(3-Chloro-1-(pyridin-3-yl)-1H-pyrazol-4-yl)-N-ethyl-2-(2-oxooxazolidin-3-yl)acetamide]	80 to 100	80 to 100
CCN(C(=O)C(C)O)c1cn(-c2cccnc2)nc1Cl (stereo not drawn) [Compound C13, N-(3-chloro-1-(pyridin-3-yl)-1H-pyrazol-4-yl)-N-ethyl-2-hydroxypropanamide]	80 to 100	80 to 100
CCN(C(=O)CC1CCN(CC(F)(F)F)C1=O)c1cn(-c2cccnc2)nc1Cl (stereo not drawn) [FA65, N-(3-Chloro-1-(pyridin-3-yl)-1H-pyrazol-4-yl)-N-ethyl-2-(2-oxo-1-(2,2,2-trifluoroethyl)pyrrolidin-3-yl)acetamide]	80 to 100	80 to 100
CCN(C(=O)CCNC(=O)CCC(F)(F)F)c1cn(-c2cccnc2)nc1Cl [Compound F12, N-(3-((3-Chloro-1-(pyridin-3-yl)-1H-pyrazol-4-yl)(ethyl)amino)-3-oxopropyl)-4,4,4-trifluorobutanamide]	80 to 100	80 to 100
CCN(C(=O)CCC(=O)NCc1ccncc1)c1cn(-c2cccnc2)nc1Cl [Compound F115, N1-(3-Chloro-1-(pyridin-3-yl)-1H-pyrazol-4-yl)-N1-ethyl-N4-(pyridin-4-ylmethyl)succinamide]	80 to 100	0 to 80
CC(=O)N1CCC(C(=O)N(C)c2cn(-c3cccnc3)nc2Cl)CC1 [Compound F29, 1-Acetyl-N-(3-chloro-1-(pyridin-3-yl)-1H-pyrazol-4-yl)-N-methylpiperidine-4-carboxamide]	80 to 100	80 to 100
CCN(C(=O)C1CCN(C(C)=O)CC1)c1cn(-c2cccnc2)nc1Cl [Compound F61, 1-Acetyl-N-(3-chloro-1-(pyridin-3-yl)-1H-pyrazol-4-yl)-N-ethylpiperidine-4-carboxamide]	0 to 80	80 to 100
CCN(C(=O)CCC(=O)N1CCCC1)c1cn(-c2cccnc2)nc1Cl [Compound F106, N-(3-Chloro-1-(pyridin-3-yl)-1H-pyrazol-4-yl)-N-ethyl-4-oxo-4-(pyrrolidin-1-yl)butanamide]	0 to 80	0 to 80
CN(C(=O)[C@@H]1C=C[C@H](NC(=O)OC(C)(C)C)C1)c1cn(-c2cccnc2)nc1Cl [Compound F109, tert-butyl ((1R,4S)-4-((3-chloro-1-(pyridin-3-yl)-1H-pyrazol-4-yl)(methyl)carbamoyl)cyclopent-2-en-1-yl)carbamate]	80 to 100	0 to 80
CCN(C(=O)C1CCN(C(=O)C(F)(F)F)CC1)c1cn(-c2cccnc2)nc1Cl [FA5, N-(3-Chloro-1-(pyridin-3-yl)-1H-pyrazol-4-yl)-N-ethyl-1-(2,2,2-trifluoroacetyl)piperidine-4-carboxamide]	0 to 80	80 to 100
CCN(C(=O)CCC1CCN(C(=O)OC(C)(C)C)C1=O)c1cn(-c2cccnc2)nc1Cl (stereo not drawn) [Compound F128, tert-butyl 3-(3-((3-chloro-1-(pyridin-3-yl)-1H-pyrazol-4-yl)(ethyl)amino)-3-oxopropyl)-2-oxopyrrolidine-1-carboxylate]	80 to 100	80 to 100
CCN(C(=O)C1CCCN(C(=O)OC(C)(C)C)C1)c1cn(-c2cccnc2)nc1Cl (stereo not drawn) [FA18, tert-Butyl 3-((3-chloro-1-(pyridin-3-yl)-1H-pyrazol-4-yl)(ethyl)carbamoyl) piperidine-1-carboxylate]	80 to 100	80 to 100
CN(C(=O)CCN1CCCC1=O)c1cn(-c2cccnc2)nc1Cl [Compound F107, N-(3-Chloro-1-(pyridin-3-yl)-1H-pyrazol-4-yl)-N-methyl-3-(2-oxopyrrolidin-1-yl)propanamide]	80 to 100	80 to 100
CCN(C(=O)C1CN(C(=O)c2cccnc2)C1)c1cn(-c2cccnc2)nc1Cl [FA17, N-(3-Chloro-1-(pyridin-3-yl)-1H-pyrazol-4-yl)-N-ethyl-1-nicotinoyl azetidine-3-carboxamide]	0 to 80	0 to 80
CCN(C(=O)CC/C(C)=N/OCCC1CC1(F)F)c1cn(-c2cccnc2)nc1Cl (stereo not drawn) [FA50, (E)-N-(3-Chloro-1-(pyridin-3-yl)-1H-pyrazol-4-yl)-4-((2-(2,2-difluorocyclopropyl)ethoxy)imino)-N-ethylpentanamide]	80 to 100	80 to 100
CCN(C(=O)C1CCCCN1C(C)=O)c1cn(-c2cccnc2)nc1Cl (stereo not drawn) [FA32, 1-Acetyl-N-(3-chloro-1-(pyridin-3-yl)-1H-pyrazol-4-yl)-N-ethylpiperidine-2-carboxamide]	0 to 80	0 to 80
CCN(C(=O)CCC(=O)N(C)CCC(F)(F)F)c1cn(-c2cccnc2)nc1Cl [Compound F108, N1-(3-chloro-1-(pyridin-3-yl)-1H-pyrazol-4-yl)-N1-ethyl-N4-methyl-N4-(3,3,3-trifluoropropyl)succinamide]	80 to 100	80 to 100
CCN(C(=O)CCC(=O)NCc1ccc(C)o1)c1cn(-c2cccnc2)nc1Cl [Compound F13, N1-(3-Chloro-1-(pyridin-3-yl)-1H-pyrazol-4-yl)-N1-ethyl-N4-((5-methylfuran-2-yl)methyl)succinamide]	80 to 100	0 to 80
CCN(C(=O)CC/C(C)=N/O)c1cn(-c2cccnc2)nc1Cl [Compound F105, (E)-N-(3-chloro-1-(pyridin-3-yl)-1H-pyrazol-4-yl)-N-ethyl-4-(hydroxyimino) pentanamide]	80 to 100	0 to 80
CCN(C(=O)CCN1CCCC1=O)c1cn(-c2cccnc2)nc1Cl [Compound F39, N-(3-Chloro-1-(pyridin-3-yl)-1H-pyrazol-4-yl)-N-ethyl-3-(2-oxopyrrolidin-1-yl)propanamide]	80 to 100	80 to 100
O=C(CCC(=O)N(CC1CC1)c1cn(-c2cccnc2)nc1Cl)N1CCCCCC1 [Compound F18, 4-(Azepan-1-yl)-N-(3-chloro-1-(pyridin-3-yl)-1H-pyrazol-4-yl)-N-(cyclopropylmethyl)-4-oxobutanamide]	80 to 100	0 to 80
